Measured values from US11773094B2, “Farnesoid X receptor agonists and uses thereof” (Metacrine, Inc., priority 2018, dated 2023).
pEC50: −log10 of the molar value.

What follows are compounds tested against T1, hFXR (Homo sapiens, UniProt Q96RI1) (assay: In Vitro FXR Assay (TK): TK-ECRE-luc reporter in transfected CV-1 cells). Settings: CV-1 cells transfected with hFXR, hRXR, pCMX-YFP, 18 hrs incubation, luminescence.
T1 construct: expressed in transfected cells; host or cells: CV-1 cells
T1 sequence (Q96RI1 1-486): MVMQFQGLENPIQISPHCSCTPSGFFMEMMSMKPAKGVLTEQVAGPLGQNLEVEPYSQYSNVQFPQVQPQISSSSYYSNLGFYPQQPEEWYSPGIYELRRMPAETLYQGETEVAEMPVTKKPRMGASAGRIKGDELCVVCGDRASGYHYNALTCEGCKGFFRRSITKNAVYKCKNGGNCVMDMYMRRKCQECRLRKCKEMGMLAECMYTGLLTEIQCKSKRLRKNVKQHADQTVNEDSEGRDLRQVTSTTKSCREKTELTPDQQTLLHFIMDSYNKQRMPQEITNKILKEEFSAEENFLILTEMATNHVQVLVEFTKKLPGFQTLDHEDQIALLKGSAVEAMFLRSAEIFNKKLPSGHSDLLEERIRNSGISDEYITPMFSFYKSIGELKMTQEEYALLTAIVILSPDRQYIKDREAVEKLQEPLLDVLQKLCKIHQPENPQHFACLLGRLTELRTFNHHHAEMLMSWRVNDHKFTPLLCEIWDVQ
T1 sequence (P19793 1-462 partner): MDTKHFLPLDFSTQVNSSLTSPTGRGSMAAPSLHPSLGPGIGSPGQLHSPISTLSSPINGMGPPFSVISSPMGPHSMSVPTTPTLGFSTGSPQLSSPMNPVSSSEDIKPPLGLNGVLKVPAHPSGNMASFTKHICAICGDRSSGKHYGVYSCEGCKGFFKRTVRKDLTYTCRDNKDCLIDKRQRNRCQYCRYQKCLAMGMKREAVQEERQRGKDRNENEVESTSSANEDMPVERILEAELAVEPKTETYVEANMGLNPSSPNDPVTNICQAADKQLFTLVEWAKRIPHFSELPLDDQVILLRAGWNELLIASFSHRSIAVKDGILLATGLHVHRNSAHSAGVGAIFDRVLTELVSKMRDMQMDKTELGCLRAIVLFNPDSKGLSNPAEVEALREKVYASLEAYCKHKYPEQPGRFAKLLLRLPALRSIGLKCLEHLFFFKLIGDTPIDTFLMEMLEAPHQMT
Format: cell-based
Method: Example B-1: In Vitro FXR Assay (TK)
CV-1 cells were seeded at a density of 2,000,000 cells in a T175 flask with DMEM+10% charcoal double-stripped FBS and incubated at 37° C. in 5% CO2 for 18 h (O/N).
After 18 h of incubation, the medium in the T175 flask was changed with fresh DMEM+10% charcoal super-stripped serum. In a polypropylene tube, 2500 μL OptiMEM (Life Technologies, Cat #31985-062) was combined with expression plasmids for hFXR, hRXR, TK-ECRE-luc and pCMX-YFP. The tube was then briefly vortexed and incubated at room temperature for 5 minutes. Transfection reagent (X-tremeGENE HP from Roche, Cat #06 366 236 001) was added to the OptiMEM/plasmid mixture vortexed and incubated at room temperature for 20 minutes. Following incubation, the transfection reagent/DNA mixture complex was added to cells in the T175 flask and the cells were incubated at 37° C. in 5% CO2 for 18 h (O/N).
Compounds were serially diluted in DMSO and added to transfected CV-1 cells. The cells were then incubated for 18 hrs. The next day cells were lysed and examined for luminescence.

| pEC50 | Structure (SMILES) |
| --- | --- |
| 6.00 to 8.00 | COc1ccc([C@H]2CC[C@H](CN(c3cc(-c4cnc(C(C)(C)C)s4)ccn3)C(=O)[C@H]3CC[C@H](OC(=O)N4CC(O)C4)CC3)CC2)cc1C [Compound 1.01, trans-4-((4-(2-(tert-Butyl)thiazol-5-yl)pyridin-2-yl)(((trans)-4-(4-methoxy-3-methylphenyl)cyclohexyl)methyl)carbamoyl) cyclohexyl 3-hydroxyazetidine-1-carboxylate] |
| ≥ 8.00 | COc1ccc(C23CCC(CN(c4cc(-c5cnn(C(C)(C)C)c5)ccn4)C(=O)[C@H]4CC[C@H](OC(=O)N5CCC(O)CC5)CC4)(CC2)CC3)cc1C [Compound 2.27, 4-((4-(1-(tert-Butyl)-1H-pyrazol-4-yl)pyridin-2-yl)((4-(4-methoxy-3-methylphenyl)bicyclo[2.2.2]octan-1-yl)methyl)carbamoyl)cyclohexyl 4-hydroxypiperidine-trans-1-carboxylate] |
| ≥ 8.00 | CCC(C)(C)n1cc(-c2ccnc(N(CC34CCC(c5ccc(OC)c(C)c5)(CC3)CC4)C(=O)[C@H]3CC[C@H](OC(=O)N4CCC(O)CC4)CC3)c2)cn1 [Compound 4.02, 4-(((4-(4-Methoxy-3-methylphenyl)bicyclo[2.2.2]octan-1-yl)methyl)(4-(1-(tert-pentyl)-1H-pyrazol-4-yl)pyridin-2-yl)carbamoyl) cyclohexyl trans-4-hydroxypiperidine-1-carboxylate] |
| ≥ 8.00 | COc1ccc(C23CCC(CN(c4cc(-c5cnc(C(C)(C)C)s5)ccn4)C(=O)[C@H]4CC[C@H](OC(=O)N5CC(O)C5)CC4)(CC2)CC3)cc1C [Compound 3.07, 4-((4-(2-(tert-Butyl)thiazol-5-yl)pyridin-2-yl)((4-(4-methoxy-3-methylphenyl)bicyclo[2.2.2]octan-1-yl)methyl)carbamoyl) cyclohexyl trans-3-hydroxyazetidine-1-carboxylate] |
| ≥ 8.00 | COc1ccc(C23CCC(CN(c4cc(-c5cnn(C(C)(C)C)c5)ccn4)C(=O)[C@H]4CC[C@H](OC(=O)N5CC(S(C)(=O)=O)C5)CC4)(CC2)CC3)cc1C [Compound 2.23, 4-((4-(1-(tert-Butyl)-1H-pyrazol-4-yl)pyridin-2-yl)((4-(4-methoxy-3-methylphenyl)bicyclo[2.2.2]octan-1-yl)methyl)carbamoyl) (trans-cyclohexyl) 3-(methylsulfonyl)azetidine-1-carboxylate] |
| 6.00 to 8.00 | COc1ccc([C@H]2CC[C@H](CN(c3cc(-c4coc(C(C)(C)C)n4)ccn3)C(=O)[C@H]3CC[C@H](OC(=O)N4CC(O)C4)CC3)CC2)cc1C [Compound 1.04, trans-4-((4-(2-(tert-Butyl)oxazol-4-yl)pyridin-2-yl)(((trans)-4-(4-methoxy-3-methylphenyl)cyclohexyl)methyl)carbamoyl) cyclohexyl 3-hydroxyazetidine-1-carboxylate] |
| 6.00 to 8.00 | COc1ccc([C@H]2CC[C@H](CN(c3cc(-c4cnc(C(C)(C)C)s4)ccn3)C(=O)[C@H]3CC[C@H](OC(=O)N4CC(O)C4(C)C)CC3)CC2)cc1C (stereo partly drawn) [Compound 1.02, trans-4-((4-(2-(tert-Butyl)thiazol-5-yl)pyridin-2-yl)(((trans)-4-(4-methoxy-3-methylphenyl)cyclohexyl)methyl)carbamoyl) cyclohexyl 3-hydroxy-2,2-dimethylazetidine-1-carboxylate] |
| 6.00 to 8.00 | COc1ccc(C23CCC(CN(c4cc(-c5cnc(C(C)(C)C)s5)ccn4)C(=O)[C@H]4CC[C@H](OC(=O)N5CCC(N(C)C)C5)CC4)(CC2)CC3)cc1C (stereo partly drawn) [Compound 2.09, 4-((4-(2-(tert-Butyl)thiazol-5-yl)pyridin-2-yl)((4-(4-methoxy-3-methylphenyl)bicyclo[2.2.2]octan-1-yl)methyl)carbamoyl)cyclohexyl 3-(dimethylamino)pyrrolidine- trans-1-carboxylate] |
| 6.00 to 8.00 | COc1ccc(C23CCC(CN(c4cccc(-c5cnn(C(C)(C)C)c5)n4)C(=O)[C@H]4CC[C@H](OC(=O)N5CC(O)C5)CC4)(CC2)CC3)cc1C [Compound 1.15, 4-((6-(1-(tert-Butyl)-1H-pyrazol-4-yl)pyridin-2-yl)((4-(4-methoxy-3-methylphenyl)bicyclo[2.2.2]octan-1-yl)methyl)carbamoyl) (trans-cyclohexyl) 3-hydroxyazetidine-1-carboxylate] |
| 6.00 to 8.00 | COc1ccc(C23CCC(CN(c4cc(-c5cnc(C(C)(C)C)s5)ccn4)C(=O)[C@H]4CC[C@H](OC(=O)NC5CCOCC5)CC4)(CC2)CC3)cc1C [Compound 3.09, 4-((4-(2-(tert-Butyl)thiazol-5-yl)pyridin-2-yl)((4-(4-methoxy-3-methylphenyl)bicyclo[2.2.2]octan-1-yl)methyl)carbamoyl) cyclohexyl (tetrahydro-2H-pyran-4-yl)trans-carbamate] |
| ≥ 8.00 | COc1ccc(C23CCC(CN(c4cc(-c5cnn(C(C)(C)C)c5)ccn4)C(=O)[C@H]4CC[C@H](OC(=O)NCCO)CC4)(CC2)CC3)cc1C [Compound 2.30, 4-((4-(1-(tert-Butyl)-1H-pyrazol-4-yl)pyridin-2-yl)((4-(4-methoxy-3-methylphenyl)bicyclo[2.2.2]octan-1-yl)methyl)carbamoyl)cyclohexyl (2-hydroxyethyl)trans-carbamate] |
| ≥ 8.00 | COc1ccc(C23CCC(CN(c4cc(-c5cnc(C(C)(C)C)s5)ccn4)C(=O)[C@H]4CC[C@H](OC(=O)N5CC(C)(O)C5)CC4)(CC2)CC3)cc1C [Compound 2.01, 4-((4-(2-(tert-Butyl)thiazol-5-yl)pyridin-2-yl)((4-(4-methoxy-3-methylphenyl)bicyclo[2.2.2]octan-1-yl)methyl)carbamoyl) (trans-cyclohexyl) 3-hydroxy-3-methylazetidine-1-carboxylate] |
| ≥ 8.00 | COc1ccc([C@H]2CC[C@H](CN(c3cc(-c4cnn(C(C)(C)C)c4)ccn3)C(=O)[C@H]3CC[C@H](OC(=O)N4CC(O)C4(C)C)CC3)CC2)cc1C (stereo partly drawn) [Compound 1.09, trans-4-((4-(1-(tert-Butyl)-1H-pyrazol-4-yl)pyridin-2-yl)((trans-4-(4-methoxy-3-methylphenyl)cyclohexyl)methyl)carbamoyl) cyclohexyl 3-hydroxy-2,2-dimethylazetidine-1-carboxylate] |
| ≥ 8.00 | COc1ccc(C23CCC(CN(c4cc(-c5cnn(C(C)(C)C)c5)ccn4)C(=O)[C@H]4CC[C@H](OC(=O)NC5COC5)CC4)(CC2)CC3)cc1C [Compound 2.28, 4-((4-(1-(tert-Butyl)-1H-pyrazol-4-yl)pyridin-2-yl)((4-(4-methoxy-3-methylphenyl)bicyclo[2.2.2]octan-1-yl)methyl)carbamoyl) (trans-cyclohexyl) oxetan-3-ylcarbamate] |
| ≥ 8.00 | COc1ccc(C23CCC(CN(c4cc(-c5coc(C(C)(C)C)n5)ccn4)C(=O)[C@H]4CC[C@H](OC(=O)NCCO)CC4)(CC2)CC3)cc1C [Compound 2.19, 4-((4-(2-(tert-Butyl)oxazol-4-yl)pyridin-2-yl)((4-(4-methoxy-3-methylphenyl)bicyclo[2.2.2]octan-1-yl)methyl)carbamoyl)cyclohexyl (2-hydroxyethyl)trans-carbamate] |
| ≥ 8.00 | COc1ccc(C23CCC(CN(c4cc(-c5cnn(C(C)(C)C)c5)ccn4)C(=O)[C@H]4CC[C@H](OC(=O)NC5CCOCC5)CC4)(CC2)CC3)cc1C [Compound 3.01, 4-((4-(1-(tert-Butyl)-1H-pyrazol-4-yl)pyridin-2-yl)((4-(4-methoxy-3-methylphenyl)bicyclo[2.2.2]octan-1-yl)methyl)carbamoyl) cyclohexyl (tetrahydro-2H-pyran-4-yl)trans-carbamate] |
| 6.00 to 8.00 | COc1ccc(C23CCC(CN(c4ccnc(-c5cnn(C(C)(C)C)c5)c4)C(=O)[C@H]4CC[C@H](OC(=O)N5CC(O)C5)CC4)(CC2)CC3)cc1C [Compound 1.13, 4-((2-(1-(tert-Butyl)-1H-pyrazol-4-yl)pyridin-4-yl)((4-(4-methoxy-3-methylphenyl)bicyclo[2.2.2]octan-1-yl)methyl)carbamoyl) (trans-cyclohexyl) 3-hydroxyazetidine-1-carboxylate] |
